According to the NIST ThermoML archive (doi:10.1016/j.jct.2005.03.017):
Numbers after ± are expanded uncertainties.

Legend:
[1] = refractive index (Na D-line) (dimensionless); conditions: 293.15 K; 101.33 kPa; Liquid; Standard Abbe refractometry
[2] = Liquid; for mass density: 293.15 K, 101.33 kPa; for Normal boiling temperature: Ebulliometric method (Recirculating still)

refractive index [1]	mass density [2]	Normal boiling temperature [2]	Structure (SMILES)
1.3811 ± 0.0008	992.7 ± 0.5 kg/m3	141.0 ± 0.1 °C	CCC(=O)O [propanoic acid]
1.451 ± 0.0008	947.3 ± 0.6 kg/m3	155.54 ± 0.1 °C	O=C1CCCCC1 [cyclohexanone]
1.3326 ± 0.0008		100.08 ± 0.1 °C	O [water]
